Source: patent US20230355646A1, “AUTOPHAGY ACTIVATOR” (Resonac Corporation, priority 2020, published 2023)

Tests used:
Format in all cases: cell-based
LC3 gene = LC3 gene expression promoting effect in human neuroblastoma SH-SY5Y in the presence of amyloid β
Protocol: (§1) In the presence of an autophagy activator, the expression levels of the LC3 gene, ATG5 gene, and ATG7 gene in human neuroblastoma (SH-SY5Y; obtained from ATCC) were measured by the following test method, and the effect of promoting the expression of the LC3 gene, ATG5 gene, and ATG7 gene by an autophagy activator was evaluated.
(§2) In the following examples and comparative examples, tests were performed by adding amyloid β, which is known to cause a decrease in autophagy in nerve cells, to each medium.
(§3) SH-SY5Y cells were prepared at a seeding density of 10000 cells/cm^2 and cultured for 24 hours in D-MEM medium/Ham's F-12 medium (manufactured by Sigma-Aldrich) to which 10% fetal bovine serum (manufactured by MP Biomedicals) was added. Next, in Example 15, the methyl hesperidin DMSO solution was added to the medium such that the final concentration of methyl hesperidin was 10^−3% (V/V) and the final concentration of DMSO was 0.1% (V/V). […]
(§4) Then, using Nucleospin (registered trademark) RNA kit (manufactured by Takara Bio Inc.), RNA was extracted from SH-SY5Y cells in each example, and cDNA was synthesized from the obtained RNA. Next, using this cDNA as a template, by quantitative real-time PCR, the expression level of each gene was quantified using primers (manufactured by Takara Bio Inc.) specific to the LC3 gene, ATG5 gene, and ATG7 gene, respectively. […]

ATG5 gene = ATG5 gene expression promoting effect in human neuroblastoma SH-SY5Y in the presence of amyloid β
Protocol: as §1, §2, §3, §4

ATG7 gene = ATG7 gene expression promoting effect in human neuroblastoma SH-SY5Y in the presence of amyloid β
Protocol: as §1, §2, §3, §4

[1] = SH-SY5Y cells with amyloid β, compared to DMSO and amyloid β of Comparative Example 5
[2] = SH-SY5Y cells, 20 μM amyloid β present, 10^−2% (V/V) methyl hesperidin or hesperidin, additional ingredient where in the example, 48 hours, Reference Example 3 = 1.00

Compound: COc1ccc([C@@H]2CC(=O)c3c(O)cc(O[C@@H]4O[C@H](CO[C@@H]5O[C@@H](C)[C@H](O)[C@@H](O)[C@H]5O)[C@@H](O)[C@H](O)[C@H]4O)cc3O2)cc1O [Comparative Example 2, hesperidin]
- expression level of the LC3 gene (in words) (LC3 gene; [1]): increased
- Relative gene expression level LC3 (LC3 gene; [2]): 2.41
- expression level of the ATG5 gene (in words) (ATG5 gene; [1]): increased
- Relative gene expression level ATG5 (ATG5 gene; [2]): 3.29
- expression level of the ATG7 gene (in words) (ATG7 gene; [1]): increased
- Relative gene expression level ATG7 (ATG7 gene; [2]): 2.31
